The source of these data is ChEMBL document CHEMBL4610057, “Benzopyrimidodiazepinone inhibitors of TNK2” (Bioorg Med Chem Lett, 2020).

As usually defined, the bioavailability is the share of a dose that reaches the circulation, judged against a reference dose that is usually intravenous. Read a high bioavailability as much systemic uptake. The half-life is the time needed for the level to fall by half in the phase considered. Read a high half-life as slow loss. A word on the clearance: it is a measure of how efficiently the substance is removed, as volume per time. The low end stands for inefficient removal, the high end for efficient removal. The term AUC(0-inf) denotes the area under the concentration-time curve extrapolated to infinity. A low value points to low exposure.

The nature of data set [1]: in vivo. The settings on record: CD1, mouse, po, 10 mg/kg.
The nature of data set [2]: in vivo. The settings on record: CD1, mouse, iv, 3 mg/kg.
A short description of data set [3]: in vivo. The settings on record: CD1, mouse, iv, 3 mg/kg. This is another data set of the same source.
A short description of data set [4]: in vivo. The settings on record: CD1, mouse, po, 10 mg/kg. The source holds these as a separate data set.
The nature of data set [5]: in vitro. The settings on record: mouse, hepatocytes.
A short description of data set [6]: Metabolic stability in mouse liver microsomes assessed as parent compound remaining measured after 60 mins. Type of data set: ADME, Microsome.
For data set [7] the following is noted: mouse, microsomes.
Data set [8] can be described thus: in vitro. The settings on record: mouse, liver microsomes. Background: Liver microsomes are a subcellular fraction often used to study metabolism.

As for `COc1cc2c(cc1Nc1ccc(Nc3ncc4c(n3)N(C)c3ccccc3C(=O)N4)cc1)CCN(C)C2`, the bioavailability in “in vivo [1]” was 7%. Further, the half-life in the data set “in vivo [2]” is 10 h. In addition, the clearance in the data set “in vivo [3]” came out at 120 mL/min/kg. The compound also yielded an AUC(0-inf) in “in vivo [4]” of 125 ng·h/mL.
As to `COc1cc(N2CCN(C)CC2)ccc1Nc1ncc2c(n1)N(C)c1ccccc1C(=O)N2`, the bioavailability in “in vivo [1]” worked out at 5%. Further, the half-life is 0.7 h in “in vivo [2]” and 5.78 h in the data set “in vitro [5]”. In “in vivo [3]”, this compound had a clearance of 150 mL/min/kg. Moreover, the Stability in data set [6] (microsomes, 1 h) is on record as 2%. Besides, the t1/2 in data set [7] was determined as 0.467 h. The compound further returned an AUC(0-inf) in “in vivo [4]” of 56 ng·h/mL.
As for `COc1cc(N2CCN(C)CC2)ccc1Nc1ncc2c(n1)N(C)c1ccccc1C(=O)N2C`, the bioavailability in the data set “in vivo [1]” amounted to 46%. Further, the half-life in the data set “in vivo [2]” was 4.4 h; in “in vitro [5]” it was above 8.33 h; in the data set “in vitro [8]”, 0.367 h. This compound displayed a clearance in “in vivo [3]” of 25 mL/min/kg. Besides, the remaining at 1 h in data set [6] (liver microsomes, read-out: Stability) is 40%. In addition, the AUC(0-inf) in “in vivo [4]” turned out to be 2000 ng·h/mL.
